# Structures can show the parent of a compound that is named as a salt.
# What was measured:
# [1] = target: Human indoleamine 2,3-dioxygenase1 (hIDO1) (Homo sapiens (Human), UniProt P14902); assay: In-vitro IDO1 enzyme assay (conversion of L-tryptophan to KYN); format: biochemical; conditions: read-out: IC50 (IDO1) Enz
# Text: Human indoleamine 2,3-dioxygenasel (hIDO1) catalyzes the oxidative cleavage of the pyrrole ring of the indole nucleus of tryptophan to yield N-formylkynurenine which can be converted to kynurenine (KYN) by deformylation. hIDO1 with an N-terminal His tag, expressed and purified from E. coli cells was procured from either Enzo LifeScienccs, NY, USA). Unless otherwise stated, all materials were procured from Sigma Aldrich, Mo., USA.
# The assay monitoring the conversion of L-tryptophan to KYN was carried out as follows. hIDO1 (10 nM) was incubated with tryptophan (30 μM) in the presence of ascorbic acid (20 mM), methylene blue (10 μM) and catalase (100 μg/mL) in potassium phosphate buffer (50 mM; pH 6.5) at 37C for 30 min. The reaction was terminated with 30% trichloroacetic acid (TCA) and further incubated at 65C for 15 min to fully convert N-formylkynurenine to KYN. The reaction mixture was then centrifuged to remove sediments and the KYN in the supernatant was estimated by UV-visible absorption spectroscopy at 360 nm using a Waters HPLC system fitted with a C-18 column or by LC/MS/MS. See, Sono, 1980, J. Biol. Chem., 255:1339-1345, which is herein incorporated by reference.
# Percent inhibition at each concentration of test compounds was determined by estimating the decrease in KYN with reference to the reaction control with 1% DMSO vehicle. Data were analyzed using nonlinear regression to generate IC50 values using Graph Pad Prism® 5.
# [2] = target: Human TDO (hTDO)-transfected CHO-K1 cells (Homo sapiens (Human), UniProt P48775); assay: CHO-K1 cell based TDO assay; conditions: hTDO cellular assay
# Protocol: Human TDO (hTDO)-transfected CHO-K1 cells were used to identify test compounds that inhibit TDO activity and reduce Kynurenine production. CHO-K1 cells (ATCC) were cultured in DMEM supplemented with sodium bicarbonate (2.1 g/L), HEPES (4.1 g/L), L-glutamine (2 mM), non-essential amino acid (84 mg/L) and fetal bovine serum (10%) and maintained at 95% humidity and 5% CO2 in a 37° C. incubator. The TDO gene (TDO2) (Accession number NM_005651.1) was purchased from Origene (USA) and stably expressed in CHO-Kl cells using the expression vector pcDNA4/Myc-HisB Hygro (Life Technologies, USA). TDO-expressing clones were identified based on the kynurenine production by the cells. Expanded clones were used for assay as described below. Unless otherwise stated, all materials were procured from Sigma.
# hTDO transfected CHO-K1 cells (0.05 million/well) were seeded in a 96-well plate and maintained overnight in DMEM containing 10% FBS (200 μL) at 95% humidity and 5% CO2 in a 37° C. incubator. The following day, cells were washed and incubated with test compounds (typically 31 μM to 10 nM, final volume 150 μL) in Hanks Balanced Salt Solution (HBSS) containing 80 μM L-tryptophan for 2 hours. Supernatant (150 μL) from the cells was treated with 30% TCA ([…]) to precipitate proteins. Supernatants were further incubated at 65° C. for 15 min to convert N-formylkynurenine to kynurenine. KYN in the supernatant was measured by LC/MS/MS using an API4000 mass spectrometer (Applied Biosystems) coupled to a Shimadzu Prominence LC system fitted with a C18 column.
# Percent inhibition of the test compounds was determined by measuring the decrease in KYN as compared to the reaction control (DMSO vehicle). IC50 values were calculated using Graph Pad Prism® 5 as described above.
# Chain of Human TDO (hTDO)-transfected CHO-K1 cells (P48775 whole entry): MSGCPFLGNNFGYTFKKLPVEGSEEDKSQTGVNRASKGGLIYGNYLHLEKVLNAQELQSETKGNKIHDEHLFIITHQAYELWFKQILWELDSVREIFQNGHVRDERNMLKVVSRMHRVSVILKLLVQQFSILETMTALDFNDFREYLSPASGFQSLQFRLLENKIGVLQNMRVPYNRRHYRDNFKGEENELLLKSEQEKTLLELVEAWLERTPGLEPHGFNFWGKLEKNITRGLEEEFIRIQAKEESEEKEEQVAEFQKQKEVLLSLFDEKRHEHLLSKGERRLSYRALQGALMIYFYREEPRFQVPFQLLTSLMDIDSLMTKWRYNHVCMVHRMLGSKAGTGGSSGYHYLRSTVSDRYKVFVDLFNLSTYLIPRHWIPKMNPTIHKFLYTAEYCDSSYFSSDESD
# Chain of Human indoleamine 2,3-dioxygenase1 (hIDO1) (P14902 whole entry): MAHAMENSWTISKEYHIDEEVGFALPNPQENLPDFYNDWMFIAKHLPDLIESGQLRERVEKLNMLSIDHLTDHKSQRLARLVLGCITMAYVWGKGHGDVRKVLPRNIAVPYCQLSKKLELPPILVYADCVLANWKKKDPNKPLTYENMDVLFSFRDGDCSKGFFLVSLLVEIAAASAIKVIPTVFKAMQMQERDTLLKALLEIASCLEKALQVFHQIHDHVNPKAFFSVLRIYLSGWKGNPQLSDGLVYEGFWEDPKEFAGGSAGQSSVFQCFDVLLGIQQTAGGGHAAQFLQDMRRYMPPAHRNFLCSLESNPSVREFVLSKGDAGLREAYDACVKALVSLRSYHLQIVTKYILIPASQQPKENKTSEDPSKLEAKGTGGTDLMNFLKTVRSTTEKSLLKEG
SMILES,IC50 [1] [nM],IC50 [2] [nM]
"Nc1oc2cnccc2c1Nc1ccc(Cc2ccccc2)cc1 [Compound 23, N^3-(4-Benzylphenyl)furo[2,3-c]pyridine-2,3-diamine]",> 1000,500 to 2000
"Nc1oc2cnccc2c1Nc1ccc(Cl)c(Cl)c1Cl [Compound 31, N^3-(2,3,4-Trichlorophenyl)furo[2,3-c]pyridine-2,3-diamine]",> 1000,> 2000
"Nc1oc2c(-c3ccc(F)c(F)c3F)nccc2c1Nc1ccc(F)c(Cl)c1 [Compound 171, N^3-(3-Chloro-4-fluorophenyl)-7-(2,3,4-trifluorophenyl)furo[2,3-c]pyridine-2,3-diamine]",< 200,–
"Nc1oc2cnccc2c1Nc1cccc(CC2CCC2)c1 [Compound 89, N^3-(3-(Cyclobutylmethyl)phenyl)furo[2,3-c]pyridine-2,3-diamine]",> 1000,> 2000
"CCOC(=O)Nc1sc2ccccc2c1Nc1ccc(F)c(Cl)c1 [Compound 209, Ethyl (3-((3-chloro-4-fluorophenyl)amino)benzo[b]thiophen-2-yl)carbamate]",> 1000,> 2000
"[NH]c1sc2ccc(Cl)cc2c1Nc1ccc(F)c(C(F)(F)F)c1 [Compound 129, hydrochloride]",200 to 1000,> 2000
"Nc1sc2ccccc2c1Sc1cccc(Cl)c1 [Compound 122, 3-((3-Chlorophenyl)thio)benzo[b]thiophen-2-amine]",> 1000,> 2000
"Cc1cc(-c2nccc3c(Nc4ccccc4N4CCCCC4)c(N)oc23)ccn1 [Compound 242, 7-(2-Methylpyridin-4-yl)-N^3-(2-(piperidin-1-yl)phenyl)furo[2,3-c]pyridine-2,3-diamine]",> 1000,> 2000
"C#Cc1ccc(Nc2c(N)oc3cnccc23)cc1 [Compound 36, N^3-(4-Ethynylphenyl)furo[2,3-c]pyridine-2,3-diamine]",> 1000,500 to 2000
"CC(=O)c1ccc(Nc2c(N)oc3cnccc23)cc1 [Compound 41, 1-(4-((2-Aminofuro[2,3-c]pyridin-3-yl)amino)phenyl)ethanone]",> 1000,500 to 2000
"COC(=O)Nc1oc2cnccc2c1N(C(=O)OC)c1ccc(F)c(Cl)c1 [Compound 144, Methyl (3-chloro-4-fluorophenyl)(2-((methoxycarbonyl)amino)furo[2,3-c]pyridin-3-yl)carbamate]",> 1000,> 2000
"CCOC(=O)Nc1oc2c(C#N)nccc2c1N(C(=O)OCC)c1ccc(F)c(Cl)c1 [Compound 145, Ethyl (3-chloro-4-fluorophenyl)(7-cyano-2-((ethoxycarbonyl)amino)furo[2,3-c]pyridin-3-yl)carbamate]",> 1000,> 2000
"Nc1oc2cnccc2c1Nc1cncc(Cl)c1 [Compound 52, N^3-(5-Chloropyridin-3-yl)furo[2,3-c]pyridine-2,3-diamine]",> 1000,500 to 2000
"CCOC(=O)Nc1oc2c(C#N)nccc2c1N(C(=O)OCC)c1ccc(F)c(C(F)(F)F)c1 [Compound 194, Ethyl (7-cyano-2-((ethoxycarbonyl)amino)furo[2,3-c]pyridin-3-yl)(4-fluoro-3-(trifluoromethyl)phenyl)carbamate]",> 1000,> 2000
"Nc1oc2cnccc2c1Nc1cc(F)c(F)cc1F [Compound 12, N^3-(2,4,5-Trifluorophenyl)furo[2,3-c]pyridine-2,3-diamine]",> 1000,> 2000
"CCOC(=O)Nc1oc2c(-c3cc(C)nc(C)c3)nccc2c1Nc1ccc(F)c(Cl)c1 [Compound 163, Ethyl (3-((3-chloro-4-fluorophenyl)amino)-7-(2,6-dimethylpyridin-4-yl)furo[2,3-c]pyridin-2-yl)carbamate]",> 1000,> 2000
"Cc1ccc(Nc2c(N)oc3cnccc23)c(C)c1 [Compound 54, N^3-(2,4-Dimethylphenyl)furo[2,3-c]pyridine-2,3-diamine]",> 1000,500 to 2000

SMILES,IC50 [1] [nM],IC50 [2] [nM]
"Nc1oc2cnccc2c1Nc1cccnc1 [Compound 49, N^3-(Pyridin-3-yl)furo[2,3-c]pyridine-2,3-diamine]",> 1000,500 to 2000
"CC(C)Oc1cc2c(Nc3ccc(F)c(Cl)c3)c(N)oc2c(-c2ccccc2)n1 [Compound 107, N^3-(3-Chloro-4-fluorophenyl)-5-isopropoxy-7-phenylfuro[2,3-c]pyridine-2,3-diamine]",> 1000,> 2000
"Nc1oc2cnccc2c1Nc1cccc(Cc2ccccc2)c1 [Compound 75, N^3-(3-Benzylphenyl)furo[2,3-c]pyridine-2,3-diamine]",> 1000,> 2000
"CN(c1ccccc1)c1c(N)sc2ccccc12 [Compound 135, N^3-Methyl-N^3-phenylbenzo[b]thiophene-2,3-diamine hydrochloride]",> 1000,> 2000
"Nc1oc2cnccc2c1Nc1ccc(C(F)(F)F)cc1 [Compound 6, N^3-(4-(Trifluoromethyl)phenyl)furo[2,3-c]pyridine-2,3-diamine]",> 1000,500 to 2000
"Cc1cc(-c2cccc3c(Nc4ccc(F)cc4)c(N)sc23)ccn1 [Compound 266, N^3-(4-Fluorophenyl)-7-(2-methylpyridin-4-yl)benzo[b]thiophene-2,3-diamine]",< 200,500 to 2000
"CC(C)(C)c1cc(Nc2c(N)oc3cnccc23)cc(C(C)(C)C)c1 [Compound 32, N^3-(3,5-Di-tert-butylphenyl)furo[2,3-c]pyridine-2,3-diamine]",> 1000,500 to 2000
"Nc1oc2cnccc2c1Nc1ccc(Oc2ccccc2)cc1 [Compound 29, N^3-(4-Phenoxyphenyl)furo[2,3-c]pyridine-2,3-diamine]",> 1000,> 2000
"COc1ccc(Nc2c(N)oc3cnccc23)c(OC)c1 [Compound 34, N^3-(2,4-Dimethoxyphenyl)furo[2,3-c]pyridine-2,3-diamine]",> 1000,> 2000
"Nc1oc2cnccc2c1Nc1ccc(F)c(Cl)c1Cl [Compound 45, N^3-(2,3-Dichloro-4-fluorophenyl)furo[2,3-c]pyridine-2,3-diamine]",> 1000,> 2000
"Nc1oc2cnccc2c1Nc1ccc(N2CCOCC2)cc1 [Compound 11, N^3-(4-Morpholinophenyl)furo[2,3-c]pyridine-2,3-diamine]",> 1000,> 2000
"Nc1sc2ccccc2c1Nc1ccc(F)c(C(F)(F)F)c1 [Compound 128, N^3-(4-Fluoro-3-(trifluoromethyl)phenyl)benzo[b]thiophene-2,3-diamine]",< 200,> 2000
"Nc1oc2cccnc2c1Nc1ccc(F)c(Cl)c1 [Compound 1, N^3-(3-chloro-4-fluoro-phenyl)-furo[3,2-b]pyridine-2,3-diamine]",< 200,–
"COc1cc(Nc2c(N)oc3cnccc23)cc(OC)c1 [Compound 38, N^3-(3,5-Dimethoxyphenyl)furo[2,3-c]pyridine-2,3-diamine]",> 1000,–
"Nc1sc2ccc(-c3ccccc3)cc2c1Nc1ccc(F)c(Cl)c1 [Compound 134, N^3-(3-chloro-4-fluorophenyl)-5-phenylbenzo[b]thiophene-2,3-diamine]",> 1000,–
"Nc1sc2c(-c3cncc4ccccc34)cccc2c1Nc1ccc(F)c(Cl)c1 [Compound 281, N^3-(3-Chloro-4-fluorophenyl)-7-(isoquinolin-4-yl)benzo[b]thiophene-2,3-diamine]",–,> 2000
"O=C(Nc1oc2cnccc2c1N(C(=O)OCc1ccccc1)c1ccc(F)c(Cl)c1)OCc1ccccc1 [Compound 140, Benzyl (2-(((benzyloxy)carbonyl)amino)furo[2,3-c]pyridin-3-yl)(3-chloro-4-fluorophenyl)carbamate]",> 1000,–
